In patent US20040081624A1, “Liquid aerosol formulations and aerosol generating devices and methods for generating aerosols” (Chrysalis Technologies Incorporated, priority 2002, published 2004):

Assays:
Type in all cases: physicochemical
[1] = Visual inspection of deposited aerosol particles (cascade impactor plates); details: carrier containing varying percentages of ethanol in water
Text: The average MMAD of the aerosol particles was 0.66 microns.
Albuterol aerosol particles produced using a carrier containing varying percentages of ethanol in water as described above were visually analyzed and determined to be dry aerosols.

[2] = Aerosol particle size distribution by cascade impactor (MOUDI) of aerosol from heated capillary passage; details: carrier 20 volume % ethanol in water
[3] = Observation of breakdown products / degradation during aerosol generation; details: carrier including ethanol; summary of tests
Text: Clogging of the capillary size passage of the aerosol generating device was not observed during these tests.

| Structure (SMILES) | nature of aerosol by visual analysis [1] | average MMAD of the albuterol aerosol particles [2] | degradation [3] |
| --- | --- | --- | --- |
| CC(C)(C)NCC(O)c1ccc(O)c(CO)c1 (stereo not drawn) [albuterol] | dry aerosols | about 3 microns |  |
| CCCC1O[C@@H]2C[C@H]3[C@@H]4CCC5=CC(=O)C=C[C@]5(C)[C@H]4[C@@H](O)C[C@]3(C)[C@]2(C(=O)CO)O1 (stereo partly drawn) [budesonide] |  |  | no observable degradation |
